Assay results as given in paper PMC9863651, “Anti-Glioma Activity Achieved by Dual Blood–Brain Barrier/Glioma Targeting Naive Chimeric Peptides-Based Co-Assembled Nanophototheranostics” (Pharmaceutics, 2023).

Tests used:
C6 cells = assay: Localized chemo-PTT/PDT toxicity, brightfield imaging; format: cell-based, Rat; settings: 100 μg/mL, 30 min
Method: The localized collaborative chemo-phototoxicity of PINPs, in contrast to PNPs, was studied and then visualized using C6 cells. In short, to assess the thermal ablation effect, C6 cells (50,000/well in 6-well dishes) were seeded and cultured in complete media and they were treated with different formulations (100 μg/mL, for 30 min). The used complete growth media containing the formulations was then swapped with new phenol-free media without FBS. For a combined chemo-phototoxicity analysis, the corresponding wells containing cells were exposed to a NIR-808 laser for ~10 min, incubated for an additional 30 min, and subsequently imaged under a brightfield microscope (Olympus BX53; Tokyo, Japan).

C6 glioma cells = assay: Scratch wound healing assay (cell migration); format: cell-based, Rat; settings: 100 μg/mL, 1 h, NIR-808 10 min, 24 h after scraping
Method: Scratch wound healing assays of the PNPs, PINPs, and ICG (100 μg/mL) were studied in C6 cells as described previously. This was followed by imaging of the cells which migrated towards the cell-free zone in the scrape at 0 and 24 h, using a brightfield inverted microscope (IX71; Olympus Corp., Tokyo, Japan). The cell migration was analyzed by measuring the dimension of the gap distance using the Adobe Photoshop CC software. The details of the process being used are provided in the Supplementary Materials. […]
nanoparticle’s aqueous solution was monitored and recorded every single min by a digital […]
1.4.5. […]
1.4.6. Scratch Assay of PINPs Determined in C6 Glioma Cells […]
1.4.7. Localized Chemo-phototoxicity of PINPs Determined in C6 Cells
Next, we quantified the synergistic chemo-phototoxicity of PINPs (10 μg/mL) in comparison to other individual moieties [PNPs (chemotherapy) and ICG (phototherapy)] in C6 cells. […]
Following day cells were treated with different formulations for 30 min. […] Cells were incubated for another 24 h and were evaluated by standard MTT assay as described […]
Figure S1. Size distribution profile of self-assembled peptide nanostructures determined in a mixture of HFIP-water at a ratio of 1:19 v/v. […]

SMILES: CC1(C)C(/C=C/C=C/C=C/C=C2\N(CCCCS(=O)(=O)O)c3ccc4ccccc4c3C2(C)C)=[N+](CCCCS(=O)(=O)[O-])c2ccc3ccccc3c21 [ICG, indocyanine green]
- cell death (brightfield images) after NIR-808 exposure (C6 cells; NIR-808 ~10 min): no cell death
- cell death (brightfield images) in the dark / without NIR-808 (C6 cells; no laser): no cell death
- wound closure (C6 glioma cells): ~ 100%
